Experimental data published in PMC7178819, “6,7-Dimethoxy-2-phenethyl-1,2,3,4-tetrahydroisoquinoline amides and corresponding ester isosteres as multidrug resistance reversers” (Journal of Enzyme Inhibition and Medicinal Chemistry, 2020).

Legend:
P-gp [1] = target: T1, P-gp (Homo sapiens, UniProt P08183); assay: Inhibition of Calcein-AM transport in MDCK-MDR1 cells; assay type: cell-based; conditions: Calcein-AM, MDCK-MDR1 cells; mean ± SEM of two experiments
T1 construct: expressed in transfected cells; host or cells: MDCK-MDR1 (Madin-Darby Canine Kidney cells, gift of Prof. P. Borst, NKI-AVL)
T1 sequence (P08183 whole entry): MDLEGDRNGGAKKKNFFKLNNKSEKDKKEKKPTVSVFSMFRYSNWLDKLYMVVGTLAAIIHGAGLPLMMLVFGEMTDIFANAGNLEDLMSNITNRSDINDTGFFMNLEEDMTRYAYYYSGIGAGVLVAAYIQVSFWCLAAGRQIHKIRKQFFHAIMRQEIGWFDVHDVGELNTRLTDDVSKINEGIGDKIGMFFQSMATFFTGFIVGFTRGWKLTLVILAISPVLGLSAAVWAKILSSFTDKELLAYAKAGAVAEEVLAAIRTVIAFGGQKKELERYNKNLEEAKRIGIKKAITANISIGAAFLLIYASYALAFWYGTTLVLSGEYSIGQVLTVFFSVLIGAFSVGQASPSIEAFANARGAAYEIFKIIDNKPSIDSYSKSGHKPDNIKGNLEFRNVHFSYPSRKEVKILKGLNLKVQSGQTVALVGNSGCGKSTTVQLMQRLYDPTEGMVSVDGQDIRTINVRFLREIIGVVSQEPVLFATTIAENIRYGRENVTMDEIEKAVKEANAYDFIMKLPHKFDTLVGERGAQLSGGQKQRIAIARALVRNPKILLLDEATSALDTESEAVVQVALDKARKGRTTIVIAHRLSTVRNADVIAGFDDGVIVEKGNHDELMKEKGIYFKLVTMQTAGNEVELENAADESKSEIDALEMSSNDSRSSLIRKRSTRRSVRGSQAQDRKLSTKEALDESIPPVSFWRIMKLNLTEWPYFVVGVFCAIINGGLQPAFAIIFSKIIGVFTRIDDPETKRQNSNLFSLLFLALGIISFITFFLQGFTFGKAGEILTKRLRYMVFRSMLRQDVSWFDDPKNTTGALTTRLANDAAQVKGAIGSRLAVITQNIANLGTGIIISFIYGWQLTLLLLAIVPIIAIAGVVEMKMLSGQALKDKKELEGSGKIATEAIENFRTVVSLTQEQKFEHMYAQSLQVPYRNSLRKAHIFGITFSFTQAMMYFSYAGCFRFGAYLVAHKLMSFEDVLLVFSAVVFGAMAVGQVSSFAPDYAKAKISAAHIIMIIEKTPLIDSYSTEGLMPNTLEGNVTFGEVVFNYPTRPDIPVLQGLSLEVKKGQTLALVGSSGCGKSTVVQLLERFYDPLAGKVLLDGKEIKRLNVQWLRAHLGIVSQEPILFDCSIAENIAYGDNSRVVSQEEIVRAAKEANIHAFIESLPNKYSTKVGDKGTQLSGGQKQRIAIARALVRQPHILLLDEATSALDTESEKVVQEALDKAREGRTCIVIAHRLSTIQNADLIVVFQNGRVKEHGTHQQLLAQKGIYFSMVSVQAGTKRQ
Protocol: These experiments were carried out as previously described by Teodori et al. with minor modifications. Each cell line (30 000 cells per well) was seeded into black CulturePlate 96/wells plate with 100 µL medium and allowed to become confluent overnight. 100 µL of test compounds were solubilised in culture medium and added to monolayers, with final concentrations ranging from 1 nM to 100 µM. 96/Wells plate was incubated for 30 min in a humidified atmosphere 5% CO2 at 37 °C. Calcein-AM was added in 100 µL of Phosphate Buffered Saline (PBS) to yield a final concentration of 2.5 µM and plate was incubated for 30 min in a humidified atmosphere 5% CO2 at 37 °C. Each well was washed 3 times with ice cold PBS. Saline buffer was added to each well and the plate was read with Victor3 (PerkinElmer) at excitation and emission wavelengths of 485 and 535 nm, respectively. In these experimental conditions, Calcein cell accumulation in the absence and in the presence of tested compounds was evaluated and fluorescence basal level was estimated with untreated cells. In treated wells the increase of fluorescence with respect to basal level was measured. EC50 values were determined by fitting the fluorescence increase percentage versus log[dose].
The interaction potency between the designed compounds and P-gp was evaluated by measuring the transport inhibition of the pro-fluorescent probe Calcein-AM, that is a P-gp substrate, in a cell line overexpressing P-gp (MDCK-MDR1)[47]. The P-gp interacting profile was further investigated with two other assays: the Apparent Permeability (Papp) determination (BA/AB) in Caco-2 cell monolayer[48]^,[49], and the ATP cell depletion in the MDCK-MDR1 cell line[50]. […] Papp determination measures the ratio between two fluxes: from the basolateral to apical compartments (BA, representative of passive diffusion) and from the apical to basolateral compartments (AB, representative of active transport). […] In the same manner, if (BA/AB) >2, the compound should probably be classified as a substrate.

[2] = Apparent permeability (Papp) determination (BA/AB) in Caco-2 cell monolayer; assay type: in vitro ADME; conditions: human, Caco-2 monolayer
Protocol: Caco-2 cells were seeded onto a Millicell® assay system (Millipore), where a cell monolayer is set in between a filter cell and a receiver plate, at a density of 10 000 cells/well[46]. The culture medium was replaced every 48 h and the cells kept for 21 days in culture. The Trans Epithelial Electrical Resistance (TEER) of the monolayers was measured daily, before and after the experiment, using an epithelial volt-ohmmeter (Millicell®-ERS). Generally, TEER values greater than 1000 Ω for a 21 days culture, are considered optimal.
After 21 days of Caco-2 cell growth, the medium was removed from filter wells and from the receiver plate, which were filled with fresh HBSS buffer (Invitrogen). This procedure was repeated twice, and the plates were incubated at 37 °C for 30 min. After incubation time, the HBSS buffer was removed and drug solutions and reference compounds were added to the filter well at the concentration of 100 µM, while fresh HBSS was added to the receiver plate. The plates were incubated at 37 °C for 120 min. Afterwards, samples were removed from the apical (filter well) and basolateral (receiver plate) side of the monolayer to measure the permeability.
(§1) The interaction potency between the designed compounds and P-gp was evaluated by measuring the transport inhibition of the pro-fluorescent probe Calcein-AM, that is a P-gp substrate, in a cell line overexpressing P-gp (MDCK-MDR1)[47]. The P-gp interacting profile was further investigated with two other assays: the Apparent Permeability (Papp) determination (BA/AB) in Caco-2 cell monolayer[48]^,[49], and the ATP cell depletion in the MDCK-MDR1 cell line[50]. Taking into account the results of the combined tests, an interacting compound can be classified as substrate or inhibitor. Papp determination measures the ratio between two fluxes: from the basolateral to apical compartments (BA, representative of passive diffusion) and from the apical to basolateral compartments (AB, representative of active transport). […] In the same manner, if (BA/AB) >2, the compound should probably be classified as a substrate. […] The selectivity of ligands 1–26 was evaluated by detecting their activity towards the other ABC transporters MRP1 and BCRP, by measuring the inhibition of the efflux of Calcein-AM (i.e., also a MRP1 substrate) in cells overexpressing MRP1 (MDCK-MRP1 cells), and the inhibition of the efflux of the fluorescent probe Hoechst 33342 (i.e. a BCRP substrate) in cells overexpressing BCRP (MDCK-BCRP cells), respectively.

P-gp [3] = target: T1, P-gp; assay: ATP cell depletion (ATPlite assay) in MDCK-MDR1 cells; assay type: cell-based; conditions: Yes/No
Protocol: The MDCK-MDR1 cells were seeded into 96-well microplate in 100 µL of complete medium at a density 20,000 cells per well. The plate was incubated overnight (O/N) in a humidified atmosphere 5% CO2 at 37 °C. The medium was removed and 100 µL of complete medium either alone or containing different concentrations (ranging from 1 to 100 µM) of test compounds was added. The plate was incubated for 2 h in a humidified 5% CO2 atmosphere at 37 °C. 50 µL of mammalian cell lysis solution was added to all wells and the plate shacked for five minutes in an orbital shaker. 50 µL of substrate solution was added to all wells and the plate shacked for five minutes in an orbital shaker. The plate was dark adapted for ten minutes and the luminescence was measured.
as §1

[4] = Stability test in human plasma (LC-MS/MS); assay type: in vitro ADME; conditions: human, human plasma, 1 µM, 37 °C
Protocol: (§2) Each sample was prepared adding 10 µL of working solution 1 to 100 µL of tested matrix (PBS or human plasma) in micro centrifuge tubes. The obtained solutions correspond to 1 µM of analyte.
After the incubation, the samples were added with 300 µL of ISTD solution and centrifuged (room temperature for 5 min at 10,000 rpm). The supernatants were transferred in auto sampler vials and dried under a gentle stream of nitrogen.
(§3) The dried samples were dissolved in 1.0 ml of 10 mM of formic acid in mQ water: acetonitrile 80:20 solution. The obtained sample solutions were analysed by LC-MS/MS methods described in Supplementary material.
(§4) For this purpose, a series of experiments were carried out, adding a known amount of analyte in both phosphate buffer solution (PBS) and in human plasma. The samples were analysed by LC-MS/MS method operating in Multiple Reaction Monitoring (MRM) mode[55].
The analyte concentration (1 µM) used during the stability tests is generally smaller than the corresponding Michaelis–Menten constant (KM); therefore, the enzymatic degradation rate is described by a first-order kinetic. Then, by plotting the natural logarithm of the quantitative data versus the incubation time, a linear function can be used and its slope represents the degradation rate (k).

[5] = Stability test in phosphate buffer solution (PBS); assay type: physicochemical; conditions: 1 µM, 37 °C, up to 120 min
Protocol: as §2
Each set of samples was incubated in triplicate at four different times, 0, 30, 60 and 120 min at 37 °C. Therefore, the degradation profile of each analyte was represented by a batch of 12 samples (4 incubation times × 3 replicates). After the incubation, the samples were added with 300 µL of ISTD solution and centrifuged (room temperature for 5 min at 10,000 rpm). The supernatants were transferred in auto sampler vials and dried under a gentle stream of nitrogen.
as §3
as §4, with “Due to the presence of ester or amide groups in the structure of compounds 1–26, a study aimed to evaluate their susceptibility to spontaneous or enzymatic hydrolysis, was planned. For” for “For”, “mode[55]. […]” for “mode[55].”

EC50 (P-gp [1]): 220 ± 40 nM | efflux ratio at 120 min, 100 µM [2]: 4.7 | ATP cell depletion (P-gp [3]): No | half-life at 1 µM [4]: ~6 min | stability in PBS [5]: unmodified
Compound: COc1cncc(C(=O)Oc2ccc(CCN3CCc4cc(OC)c(OC)cc4C3)cc2)n1 [Compound 25, 4–(2-(6,7-Dimethoxy-3,4-dihydroisoquinolin-2(1H)-yl)ethyl)phenyl 6-methoxypyrazine-2-carboxylate]
